{"source": "patent US20220142959A1", "about": "“LEUCINE, ACETYL LEUCINE, AND RELATED ANALOGS FOR TREATING DISEASE” (priority 2019, published 2022)", "key": {"[1]": {"test_system": "traumatic brain injury patient", "test": "Case report: patient with traumatic brain injury given acetyl-DL-leucine", "format": "in vivo, human", "details": "TBI patient", "procedure": "A patient suffering from traumatic brain injury was administered acetyl-DL-leucine at a dose of 3 g per day for the first week, followed by a dose of 5 g per day."}, "[2]": {"test_system": "rat primary cortical neurons (NE and NG cultures)", "test": "Truncated tau and neuronal markers in neuron-enriched and neuron-glia cultures", "format": "cell-based", "details": "for tolerability (levels of synaptophysin and βIII-tubulin vs untreated control): NE and NG cultures, 1 mM, five days (DIV 9-14); for reduction of basal levels of truncated tau: NG cultures at DIV14, 1 mM, five days", "procedure": "FIG. 20 is eight Western blots of tau (5E2), synaptophysin and βIII-tubulin in rat primary cortical neurons (neuron-enriched (NE) and neuron-glia (NG) cultures) in the absence and presence of ADLL, ALL, ADL, DLL, LL, DL, and LLE (1 mM, 5 days).\nThe efficacy of ADLL, ALL, ADL, DLL, LL, DL, and LLE in reducing truncated tau levels in neuron-glia (NG) cultures was investigated. The results of this study are provided in FIGS. 20-24 One aim of this study was to determine whether ADLL, ALL, ADL, DLL, LL, DL, and LLE conferred intrinsic neuroprotection by sustaining neuronal function under conditions of cellular overgrowth, or whether they acted indirectly through the non-autonomous modulation of glial cells. Irrespective of whether the compounds acted directly or indirectly on neurons, preventing the generation of truncated tau confers beneficial effects to neuronal integrity.\nCultures were treated for five days (DIV 9-14) with 1 mM of ADLL, ALL, ADL, DLL, LL, DL, or LLE, and were subsequently assessed for a number of neuron-specific markers that could provide a readout on neuronal health: βIII-tubulin, full-length tau, truncated tau (antibody 5E2) and synaptophysin. ADLL, ALL, ADL, DLL, LL, DL, and LLE were well-tolerated in NE and NG cultures, as evidenced by consistently equal levels of synaptophysin and βIII-tubulin detected across untreated (control) and drug-treated samples (FIGS. 20, 23, and 24). None of ADLL, ALL, ADL, DLL, LL, DL, and LLE reduced basal levels of truncated tau in NG cultures at DIV14 (FIG. 20 and FIG. 22)."}, "[3]": {"test_system": "patients with cerebellar ataxia", "details": "cited from earlier work"}, "[4]": {"test_system": "LC3-II and APP-CTFs", "test": "EAL flux in NPC1 mice (cerebellum LC3-II and APP-CTFs)", "format": "in vivo, mouse", "details": "treated 3 weeks; for restoring autophagic flux with respect to reducing LC3-II levels: relative to untreated NPC1", "from_the_text": "FIG. 14 is a histogram of the ratio of LC3-II expression to βIII-tubulin in the cerebellum of mouse NPC1 brains at 9-12 weeks of age treated with ADLL, ALL, ADL, DLL, LL, DL, LLE, and miglustat (miglu.) for 3 weeks relative to untreated NPC1 cerebellum (n=4, mean±S.E.M).\nFIG. 15 is a histogram of the ratio of APP-CTFs: full-length APP expression in the cerebellum of mouse NPC1 brains at 9-12 weeks of age treated with ADLL, ALL, ADL, DLL, LL, DL, LLE, and miglustat (miglu.) for 3 weeks relative to untreated NPC1 cerebellum (n=4, mean±S.E.M).\nFIG. 16 is a histogram of the ratio of APP-CTF-6: full-length APP expression in the cerebellum of mouse NPC1 brains at 9-12 weeks of age treated with ADLL, ALL, ADL, DLL, LL, DL, and LLE for 3 weeks relative to untreated NPC1 cerebellum.\nFIG. 17 is a histogram of the ratio of APP-CTF-7: full-length APP expression in the cerebellum of mouse NPC1 brains at 9-12 weeks of age treated with ADLL, ALL, ADL, DLL, LL, DL, and LLE for 3 weeks relative to untreated NPC1 cerebellum (n=4, mean±S.E.M).\nThe efficacy of ADLL, ALL, ADL, DLL, LL, DL, and LLE in alleviating the impairment of EAL flux in NPC1 mice was investigated. […] Without wishing to be bound by any particular theory, it is possible that ADL and LLE reduced autophagic vacuole (AV) build-up by inhibiting autophagosome formation, possibly through the activation mTORC1. […] Also, acetyl L-leucine (ALL), acetyl D-leucine (ADL) and L-leucine (LL) reduced CTF-7 expression, indicating some improvement in lysosomal proteolysis (FIG. 17)."}, "[5]": {"test_system": "CD68 positive activated microglia", "test": "CD68 positive activated microglia in cerebellum of Npc1−/− mice", "format": "in vivo", "details": "59 days of age, compared to Npc1−/− UT", "from_the_text": "(§1) FIG. 46 is an image showing cerebellar Purkinje cell loss progressing from anterior to posterior lobes and microglial activation in untreated Npc1^−/− mice and Npc1^−/− mice treated with ADLL, ALL, and ADL. Cerebellums were stained with calbindin-b (Purkinje cells) or CD68 (activated microglia).\nFIG. 48 is a scatter graph showing frequency of CD68 positive activated microglia at 59 days of age in untreated Npc1^−/− mice and Npc1^−/− mice treated with ADLL, ALL, and ADL. CD68 cell density was measured in the cerebellum. n=5 animals per group. Mean±SD, *** p<0.0009 (one-way ANOVA).\n(§2) The combination of increased survival of neurons and a less inflammatory environment in the brain could improve brain function, quality of life, and delay the progression of disease in human subjects."}, "[6]": {"test_system": "patients with ataxia", "details": "in responders; cited from earlier work"}, "[7]": {"test_system": "rat primary cortical neurons", "test": "U18666A-mediated impairment of lysosomal fusion in rat primary cortical neurons", "format": "cell-based", "details": "for CTF-6 and -7 (endosomal-lysosomal fusion) / LC3-II levels: co-treated with U18666A (2 μg/mL) and compound 1 mM", "procedure": "(§3) FIG. 18. is a histogram of the ratio of LC3-II normalised to βIII tubulin (expressed as a percentage of untreated (n=1)) in rat primary cortical neurons that were treated with U18666A (2 μg/ml, 24 hr) in the absence or presence of ADLL, ALL, ADL, DLL, LL, DL, and LLE (1 mM, 24 hr).\nas §3, with “19” for “18.”, “is” for “is a”, “APP-CTFs-6 and -7” for “LC3-II”, “their respective CTFs in untreated cells” for “βIII tubulin”, “(n=1)” for “(n=1))”\nThe efficacy of ADLL, ALL, ADL, DLL, LL, DL, and LLE in alleviating the U18666A-mediated impairment of autophagosome-lysosome fusion and endosomal lysosomal fusion was investigated. In this cell-based assay of impaired EAL flux, the reappearance of basal levels of APP CTFs-6 and -7, provided an indication of improved endosomal-lysosomal fusion.\nNeurons were co-treated with U18666A (2 μg/mL) along with ADLL, ALL, ADL, DLL, LL, DL, and LLE (1 mM, 24 h)."}, "[8]": {"test_system": "cerebellar Purkinje cells", "test": "Purkinje cell survival in Npc1−/− mice", "format": "in vivo", "from_the_text": "as §1\nFIG. 47 is a scatter graph showing Purkinje cell survival at 59 days of age in untreated Npc1^−/− mice and Npc1^−/− mice treated with ADLL, ALL, and ADL.\nas §2"}, "[9]": {"test_system": "LC3-II", "details": "WO 2018/029658; cited from earlier work"}, "[10]": {"test_system": "patients with Niemann-Pick Type C (NPC)", "details": "one-month study, 12 patients; cited from earlier work"}, "[11]": {"details": "59 days of age, relative to untreated Npc1−/− littermates"}}, "data": [{"smiles": "CC(=O)NC(CC(C)C)C(=O)O", "note": "(racemic) [ADLL, acetyl-DL-leucine]", "values": [{"measurement": "behaviour / level of activity after treatment", "setting": "[1]; 3 g per day first week, then 5 g per day", "value": "more active behaviour"}, {"measurement": "level of activity after medication was stopped", "setting": "[1]; medication stopped", "value": "returned to its original level"}, {"measurement": "tolerability (levels of synaptophysin and βIII-tubulin vs untreated control)", "setting": "[2]", "value": "well-tolerated"}, {"measurement": "reduction of basal levels of truncated tau", "setting": "[2]", "value": "None"}, {"measurement": "benefit, another case series (Pelz et al. 2015)", "setting": "[3]; cerebellar patients", "value": "did not find benefit"}, {"measurement": "cerebellar ataxia symptoms, case series (Strupp et al. 2013)", "setting": "[3]; cerebellar patients", "value": "symptomatic improvement"}, {"measurement": "temporal gait variability (quantitative gait analysis)", "setting": "[3]; patients with cerebellar ataxia", "value": "improved"}, {"measurement": "reduction in APP-CTFs, particularly CTF-6 and -7", "setting": "[4]", "value": "not accompanied by a concomitant reduction"}, {"measurement": "restoring autophagic flux with respect to reducing LC3-II levels", "setting": "[4]", "value": "effective in restoring autophagic flux"}, {"measurement": "impact on frequency of CD68 positive activated microglia", "setting": "[5]", "value": "did not have an impact"}, {"measurement": "metabolism in the midbrain and lower brainstem (PET)", "setting": "[6]", "value": "increased metabolism"}, {"measurement": "CTF-6 and -7 (endosomal-lysosomal fusion)", "setting": "[7]; 24 h", "value": "reappearance of basal amounts"}, {"measurement": "LC3-II levels", "setting": "[7]; 24 h", "value": "lower than the basal levels"}, {"measurement": "more Purkinje cells in lobule III", "setting": "[8]; [11]", "value": 402, "unit": "%"}, {"measurement": "more Purkinje cells present in lobules I and II", "setting": "[8]; [11]", "value": 133, "unit": "%"}, {"measurement": "LC3-II in NPC1 mouse brain", "setting": "[9]", "value": "lowering of LC3-II"}, {"measurement": "ataxia symptoms in NPC patients", "setting": "[10]", "value": "symptomatic improvement of ataxia"}]}, {"smiles": "CC(C)CC(N)C(=O)O", "note": "(racemic) [DLL, DL-leucine]", "values": [{"measurement": "tolerability (levels of synaptophysin and βIII-tubulin vs untreated control)", "setting": "[2]", "value": "well-tolerated"}, {"measurement": "reduction of basal levels of truncated tau", "setting": "[2]", "value": "None"}, {"measurement": "CTF-6 and -7 (endosomal-lysosomal fusion)", "setting": "[7]; 24 h", "value": "reappearance of basal amounts"}]}, {"smiles": "CC(=O)N[C@H](CC(C)C)C(=O)O", "note": "[ADL, acetyl-D-leucine]", "values": [{"measurement": "tolerability (levels of synaptophysin and βIII-tubulin vs untreated control)", "setting": "[2]", "value": "well-tolerated"}, {"measurement": "reduction of basal levels of truncated tau", "setting": "[2]", "value": "None"}, {"measurement": "CTF-7 expression / clearance", "setting": "[4]", "value": "reduced"}, {"measurement": "impact on frequency of CD68 positive activated microglia", "setting": "[5]", "value": "did not have an impact"}, {"measurement": "CTF-6 and -7 (endosomal-lysosomal fusion)", "setting": "[7]; 24 h", "value": "reappearance of basal amounts"}, {"measurement": "LC3-II levels", "setting": "[7]; 24 h", "value": "lower than the basal levels"}, {"measurement": "Purkinje cell survival in any cerebellar lobules", "setting": "[8]; 59 days of age, compared to Npc1−/− UT", "value": "did not improve"}, {"measurement": "long-term neuroprotective effects", "setting": "[8]; Npc1−/− mice", "value": "did not mediate any"}]}, {"smiles": "CC(C)C[C@@H](N)C(=O)O", "note": "[DL, D-leucine]", "values": [{"measurement": "tolerability (levels of synaptophysin and βIII-tubulin vs untreated control)", "setting": "[2]", "value": "well-tolerated"}, {"measurement": "reduction of basal levels of truncated tau", "setting": "[2]", "value": "None"}, {"measurement": "CTF-7 expression / clearance", "setting": "[4]", "value": "positive effects"}, {"measurement": "CTF-6 and -7 (endosomal-lysosomal fusion)", "setting": "[7]; 24 h", "value": "reappearance of basal amounts"}]}, {"smiles": "CC(C)C[C@H](N)C(=O)O", "note": "[LL, L-leucine]", "values": [{"measurement": "tolerability (levels of synaptophysin and βIII-tubulin vs untreated control)", "setting": "[2]", "value": "well-tolerated"}, {"measurement": "reduction of basal levels of truncated tau", "setting": "[2]", "value": "None"}, {"measurement": "CTF-6 accumulation", "setting": "[4]", "value": "did reduce"}, {"measurement": "CTF-7 expression / clearance", "setting": "[4]", "value": "reduced"}, {"measurement": "CTF-6 and -7 (endosomal-lysosomal fusion)", "setting": "[7]; 24 h", "value": "reappearance of basal amounts"}]}, {"smiles": "CCOC(=O)[C@@H](N)CC(C)C", "note": "[LLE, L-leucine ethyl ester]", "values": [{"measurement": "tolerability (levels of synaptophysin and βIII-tubulin vs untreated control)", "setting": "[2]", "value": "well-tolerated"}, {"measurement": "reduction of basal levels of truncated tau", "setting": "[2]", "value": "None"}, {"measurement": "reduction in APP-CTFs, particularly CTF-6 and -7", "setting": "[4]", "value": "not accompanied by a concomitant reduction"}, {"measurement": "restoring autophagic flux with respect to reducing LC3-II levels", "setting": "[4]", "value": "effective in restoring autophagic flux"}, {"measurement": "CTF-6 and -7 (endosomal-lysosomal fusion)", "setting": "[7]; 24 h", "value": "reappearance of basal amounts"}]}, {"smiles": "CCN(CC)CCO[C@H]1CC[C@@]2(C)C(=CC[C@@H]3[C@@H]2CC[C@]2(C)C(=O)CC[C@@H]32)C1", "note": "[U18666A, reference compound]", "values": [{"measurement": "CTFs-6 and 7", "setting": "[7]; U18666A alone 2 μg/mL, 24 hr, DIV14", "value": "complete absence"}, {"measurement": "LC3-II accumulation", "setting": "[7]; U18666A alone, 24 h", "value": "did not cause an increase"}]}]}
